Values quoted from earlier work as cited in patent US7214387B2, “Sustained release formulations of metformin” (Penwest Pharmaceuticals Company, priority 2002, dated 2007).

Test system: serum lipids

## CN(C)C(=N)NC(=N)N [metformin, N,N-dimethylimidodicarbonimidicdiamide]
Clinical studies
  effects on other lipid levels: no adverse effects
Particularly when baseline lipid levels were abnormally elevated
  mean fasting serum triglycerides, total cholesterol, and LDL cholesterol levels: lowered
